Test results: patent US20090076278A1, “METHINE DYES AND USES OF THE SAME” (KABUSHIKI KAISHA HAYASHIBARA SEIBUTSU KAGAKU KENKYUJO, priority 2006, published 2009)

Experiments:
Type in all cases: physicochemical
[1] = Solubility of methine dye in TFP; settings: for solubility in TFP (in words): 1.6% by weight in TFP for forming a recording layer; for Solubility: dissolved in 100 ml of TFP at 20° C.
Method: For the methine dyes of the present invention as listed in Table 1, they were respectively dissolved in 100 ml of TFP at 20° C. and, as solubility, measured for the mass of each methine dye. In parallel, conventionally known related compounds represented by Chemical Formulae 65 to 67 were similarly measured for their solubilities.

[2] = Light tolerance of dye thin membrane under xenon lamp exposure; settings: thin membrane on glass substrate; 7.5 kw xenon lamp, two hours, 180 W/m^2; transmittance at absorption maximum wavelength (about 550 nm)
Method: Any one of the methine dyes represented by Chemical Formulae 1 to 3, 8 and 36, obtained by the methods in Examples 4 to 8, was weighed by 15 mg, added to three milliliters of TFP, and dissolved by energizing with ultra sound for five minutes at ambient temperature. The resulting solution was dropped to homogeneity over either side of a polished glass substrate (5 cm×5 cm) by spin coating, and the substrate was rotated at 1,000 rμm for one minute to homogeneously apply the solution over the substrate, and dried by successively blowing hot air and cool air thereunto in this order to form a thin membrane of any one of the methine dyes of the present invention over the glass substrate.
The transmittance (T0) of the methine dyes in the form of a thin layer was measured at their absorption maximum wavelengths (about 550 nm), and a 7.5 kw xenon lamp was installed apart from the glass substrate at a prescribed distance to expose the glass substrate for two hours with an irradiation energy of 180 W/m^2 when measured on the surface of the substrate while blowing cool air thereunto. Thereafter, the transmittance (T) at each of their absorption maximum wavelengths was instantly remeasured, and the residual percentage (%) of each dye was calculated by substituting the measured transmittances T and To Formula 1. In parallel, the thin membranes formed with the related compounds represented by Chemical Formulae 65 to 68 were similarly treated as in the above and respectively measured for their transmittances at their absorption maximum wavelengths.

[3] = DSC analysis for decomposition point (thermal property); settings: DSC analysis of crystal
Description: As described above, the methine dyes of the present invention have main absorption maxima in the region at wavelengths of longer than 300 nm, usually, at wavelengths of around 350 to 850 nm, and have distinctly high molecular absorption coefficients (may be abbreviated as “ε”) of 1.0×10^5 or more, usually, 1.5×10^5 or more at their absorption maxima, and efficiently absorb the light in such wavelength region. […] As is well known, it is said that the decomposition point and the glass transition point of an organic compound are recognized as important indexes of their thermal stability, i.e., compounds with higher decomposition points and glass transition points tend to have a higher thermal stability. Accordingly, the methine dyes of the present invention can be quite advantageously used as light-absorption materials which absorb the light in the ultra violet and the infrared regions to shield it, or use the light energy of the above regions in various fields of, for example, information recordings, solar energy generations, electric equipments, electric communications apparatuses, optical equipments, clothes, building/bedding/decorating products, health goods, and agricultural materials. The decomposition points of the methine dyes can be determined by conventional […] (abbreviated as “DSC” herein after).
Conventional measurement of the dye for visible absorption spectrum in methanol solution as an absorption property gave a main absorption maximum at a wavelength of about 544 nm (E=1.94×10^5). ^1H-NMR Analysis of the methine dye in dimethyl sulfoxide-d^6 solution gave a chemical shift δ (ppm, TMS) at peaks of 0.15 to 0.32 (2H, m, —CH2—), 0.65 to 0.82 (2H, m, —CH2—), (6H, t, CH3—), 1.23 (6H, t, CH3—), 1.62 (6H, s, CH3—), 1.80 (6H, s, CH3—), 1.87 (6H, s, CH3—), 1.85 to 2.07 (2H, m, —CH2—), 2.70 to 2.90 (2H, m, —CH2—), 3.95 to 4.20 (8H, m, —CH2—), 6.39 (2H, d, —CH═), 6.48 (2H, d, —CH═), 7.51 (2H, t, ArH), 7.59 (2H, t, ArH), 7.61 (2H, d, ArH), 7.66 (2H, t, ArH), 7.75 (2H, d, ArH), 7.78 (2H, t, ArH), 8.01 (4H, t, ArH), 8.13 (4H, t, ArH), 8.16 (2H, d, ArH), 8.24 (2H, d, ArH), and 8.32 (2H, t, —CH═).

Row | Structure (SMILES) | solubility in TFP (in words) [1] | Solubility [1] [% by weight] | decomposition point [3] | Residual percentage (%) of dye [2] [%]
1 | CCN1C(=CC=CC2=[N+](CC)c3ccc4ccccc4c3C2(C)CCCCC2(C)C(C=CC=C3N(CC)c4ccc5ccccc5c4C3(C)Cc3ccccc3)=[N+](CC)c3ccc4ccccc4c32)C(C)(Cc2ccccc2)c2c1ccc1ccccc21.F[P-](F)(F)(F)(F)F.F[P-](F)(F)(F)(F)F (stereo not shown) [Chemical Formula 2] |  | 2.68 | about 211 °C | 66
2 | CN1C(=CC2=[N+](C)c3ccc4ccccc4c3C2(C)CCCCC2(C)C(C=C3Oc4ccccc4N3C)=[N+](C)c3ccc4ccccc4c32)Oc2ccccc21.[O-][Cl+3]([O-])([O-])[O-].[O-][Cl+3]([O-])([O-])[O-] (stereo not shown) [Chemical Formula 21] |  |  | about 285 °C | 
3 | C[N+]1=C(C=CNc2ccccc2)C(C)(CCCCC2(C)C(C=CNc3ccccc3)=[N+](C)c3ccc4ccccc4c32)c2c1ccc1ccccc21.[O-][Cl+3]([O-])([O-])[O-].[O-][Cl+3]([O-])([O-])[O-] (stereo not shown) [Chemical Formula 24] |  |  | about 300 °C | 
4 | CCN1C(=CC=CC2=[N+](CC)c3ccc4ccccc4c3C2(C)CCCCC2(C)C(C=CC=C3N(CC)c4ccc5ccccc5c4C34CCCCC4)=[N+](CC)c3ccc4ccccc4c32)C2(CCCCC2)c2c1ccc1ccccc21.F[P-](F)(F)(F)(F)F.F[P-](F)(F)(F)(F)F (stereo not shown) [Chemical Formula 3] |  | 2.47 | about 235 °C | 64
5 | CCN1C(=CC=CC2=[N+](CC)c3ccc4ccccc4c3C2(C)Cc2ccccc2)C(C)(Cc2ccccc2)c2c1ccc1ccccc21 (stereo not shown) [Chemical Formula 68, reference compound] |  |  |  | 50
6 | CCN1C(=CC=CC2=[N+](CC)c3ccc4ccccc4c3C2(C)CCCCCCC2(C)C(C=CC=C3N(CC)c4ccc5ccccc5c4C3(C)C)=[N+](CC)c3ccc4ccccc4c32)C(C)(C)c2c1ccc1ccccc21.F[P-](F)(F)(F)(F)F.F[P-](F)(F)(F)(F)F (stereo not shown) [Chemical Formula 8] |  | 2.58 |  | 75

Continued, in another order:

Row | solubility in TFP (in words) [1] | Solubility [1] [% by weight] | decomposition point [3] | Structure (SMILES) | Residual percentage (%) of dye [2] [%]
7 | relatively low solubility in TFP | 0.44 |  | CCN1C(=CC=CC2=[N+](CCCCCC[N+]3=C(C=CC=C4N(CC)c5ccc6ccccc6c5C4(C)C)C(C)(C)c4c3ccc3ccccc43)c3ccc4ccccc4c3C2(C)C)C(C)(C)c2c1ccc1ccccc21 [Chemical Formula 67] | 60
8 |  | 1.10 |  | CCN1C(=CC=CC2=[N+](CC)c3ccc4ccccc4c3C2(C)C)C(C)(C)c2c1ccc1ccccc21 [Chemical Formula 65, reference compound] | 73
9 |  | 1.66 | about 220 °C | CCN1C(=CC=CC2=[N+](C)c3ccc4ccccc4c3C2(C)Cc2ccc(CC3(C)C(C=CC=C4N(CC)c5ccc6ccccc6c5C4(C)Cc4ccccc4)=[N+](C)c4ccc5ccccc5c43)cc2)C(C)(Cc2ccccc2)c2c1ccc1ccccc21.F[P-](F)(F)(F)(F)F.F[P-](F)(F)(F)(F)F (stereo not shown) [Chemical Formula 36] | 64
10 | relatively low solubility in TFP | 0.82 |  | CCN1C(=CC=CC2=[N+](CC)c3ccc4ccccc4c3C23CCCCC3)C(C)(C)c2c1ccc1ccccc21 [Chemical Formula 66] | 58
